Laboratory results published in PMC5622171 (Nature Communications, 2017).

What was measured:
Experiment in all cases: KINOMEscan kinase profiling
Type in all cases: binding
ACVR2A = target: T1, ACVR2A (Homo sapiens, UniProt P27037); conditions: read-out: %Inhibition by 10 μM SPA70
T1 construct: purchased DiscoverX (Ambit Biosciences) KINOMEscan
Outline: (§1)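 KINOMEscan profiling followed a published protocol. Kinases whose inhibition exceeded a set cut-off were then tested in a dilution series beginning at 30 µM.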

ASK1 = target: T2, ASK1 (Homo sapiens, UniProt Q99683); conditions: read-out: %Inhibition by 10 μM SPA70
T2 construct: purchased DiscoverX (Ambit Biosciences) KINOMEscan
Outline: as §1

MERTK = target: T3, MERTK (Homo sapiens, UniProt Q12866); conditions: read-out: %Inhibition by 10 μM SPA70
T3 construct: purchased DiscoverX (Ambit Biosciences) KINOMEscan
Outline: as §1

PRKCQ = target: T4, PRKCQ (Homo sapiens, UniProt Q04759); conditions: read-out: %Inhibition by 10 μM SPA70
T4 construct: purchased DiscoverX (Ambit Biosciences) KINOMEscan
Outline: as §1

PRKCD = target: T5, PRKCD (Homo sapiens, UniProt Q05655); conditions: read-out: %Inhibition by 10 μM SPA70
T5 construct: purchased DiscoverX (Ambit Biosciences) KINOMEscan
Outline: as §1

SRC = target: T6, SRC (Homo sapiens, UniProt P12931); conditions: read-out: %Inhibition by 10 μM SPA70
T6 construct: purchased DiscoverX (Ambit Biosciences) KINOMEscan
Outline: as §1

MARK2 = target: T7, MARK2 (Homo sapiens, UniProt Q7KZI7); conditions: read-out: %Inhibition by 10 μM SPA70
T7 construct: purchased DiscoverX (Ambit Biosciences) KINOMEscan
Outline: as §1

BRSK1 = target: T8, BRSK1 (Homo sapiens, UniProt Q8TDC3); conditions: read-out: %Inhibition by 10 μM SPA70
T8 construct: purchased DiscoverX (Ambit Biosciences) KINOMEscan
Outline: as §1

TESK1 = target: T9, TESK1 (Homo sapiens, UniProt Q15569); conditions: read-out: %Inhibition by 10 μM SPA70
T9 construct: purchased DiscoverX (Ambit Biosciences) KINOMEscan
Outline: as §1

CLK3 = target: T10, CLK3 (Homo sapiens, UniProt P49761); conditions: read-out: %Inhibition by 10 μM SPA70
T10 construct: purchased DiscoverX (Ambit Biosciences) KINOMEscan
Outline: as §1

IGF1R = target: T11, IGF1R (Homo sapiens, UniProt P08069); conditions: read-out: %Inhibition by 10 μM SPA70
T11 construct: purchased DiscoverX (Ambit Biosciences) KINOMEscan
Outline: as §1

HIPK4 = target: T12, HIPK4 (Homo sapiens, UniProt Q8NE63); conditions: read-out: %Inhibition by 10 μM SPA70
T12 construct: purchased DiscoverX (Ambit Biosciences) KINOMEscan
Outline: as §1

ERK1 = target: T13, ERK1 (Homo sapiens, UniProt P27361); conditions: read-out: %Inhibition by 10 μM SPA70
T13 construct: purchased DiscoverX (Ambit Biosciences) KINOMEscan
Outline: as §1

PIP5K1C = target: T14, PIP5K1C (Homo sapiens, UniProt O60331)
T14 construct: purchased DiscoverX (Ambit Biosciences) KINOMEscan
Outline: as §1

MAPKAPK2 = target: T15, MAPKAPK2 (Homo sapiens, UniProt P49137); conditions: read-out: %Inhibition by 10 μM SPA70
T15 construct: purchased DiscoverX (Ambit Biosciences) KINOMEscan
Outline: as §1

SLK = target: T16, SLK (Homo sapiens, UniProt Q9H2G2); conditions: read-out: %Inhibition by 10 μM SPA70
T16 construct: purchased DiscoverX (Ambit Biosciences) KINOMEscan
Outline: as §1

NEK11 = target: T17, NEK11 (Homo sapiens, UniProt Q8NG66); conditions: read-out: %Inhibition by 10 μM SPA70
T17 construct: purchased DiscoverX (Ambit Biosciences) KINOMEscan
Outline: as §1

CDK11 = target: T18, CDK11 (Homo sapiens, UniProt Q9BWU1)
T18 construct: purchased DiscoverX (Ambit Biosciences) KINOMEscan
Outline: as §1

PLK4 = target: T19, PLK4 (Homo sapiens, UniProt O00444); conditions: read-out: %Inhibition by 10 μM SPA70
T19 construct: purchased DiscoverX (Ambit Biosciences) KINOMEscan
Outline: as §1

PLK3 = target: T20, PLK3 (Homo sapiens, UniProt Q9H4B4); conditions: read-out: %Inhibition by 10 μM SPA70
T20 construct: purchased DiscoverX (Ambit Biosciences) KINOMEscan
Outline: as §1

PRKCI = target: T21, PRKCI (Homo sapiens, UniProt P41743); conditions: read-out: %Inhibition by 10 μM SPA70
T21 construct: purchased DiscoverX (Ambit Biosciences) KINOMEscan
Outline: as §1

PRKR = target: T22, PRKR (Homo sapiens, UniProt P19525)
T22 construct: purchased DiscoverX (Ambit Biosciences) KINOMEscan
Outline: as §1

MAP4K4 = target: T23, MAP4K4 (Homo sapiens, UniProt O95819); conditions: read-out: %Inhibition by 10 μM SPA70
T23 construct: purchased DiscoverX (Ambit Biosciences) KINOMEscan
Outline: as §1

BIKE = target: T24, BIKE (Homo sapiens, UniProt Q9NSY1); conditions: read-out: %Inhibition by 10 μM SPA70
T24 construct: purchased DiscoverX (Ambit Biosciences) KINOMEscan
Outline: as §1

FGR = target: T25, FGR (Homo sapiens, UniProt P09769); conditions: read-out: %Inhibition by 10 μM SPA70
T25 construct: purchased DiscoverX (Ambit Biosciences) KINOMEscan
Outline: as §1

EPHB1 = target: T26, EPHB1 (Homo sapiens, UniProt P54762); conditions: read-out: %Inhibition by 10 μM SPA70
T26 construct: purchased DiscoverX (Ambit Biosciences) KINOMEscan
Outline: as §1

MAP3K15 = target: T27, MAP3K15 (Homo sapiens, UniProt Q6ZN16); conditions: read-out: %Inhibition by 10 μM SPA70
T27 construct: purchased DiscoverX (Ambit Biosciences) KINOMEscan
Outline: as §1

MRCKB = target: T28, MRCKB (Homo sapiens, UniProt Q9Y5S2); conditions: read-out: %Inhibition by 10 μM SPA70
T28 construct: purchased DiscoverX (Ambit Biosciences) KINOMEscan
Outline: as §1

NEK7 = target: T29, NEK7 (Homo sapiens, UniProt Q8TDX7); conditions: read-out: %Inhibition by 10 μM SPA70
T29 construct: purchased DiscoverX (Ambit Biosciences) KINOMEscan
Outline: as §1

NDR2 = target: T30, NDR2 (Homo sapiens, UniProt Q9Y2H1); conditions: read-out: %Inhibition by 10 μM SPA70
T30 construct: purchased DiscoverX (Ambit Biosciences) KINOMEscan
Outline: as §1

[1] = target: T31, RSK3(Kin.Dom.2-C-terminal) (Homo sapiens, UniProt Q15349); conditions: read-out: %Inhibition by 10 μM SPA70
T31 construct: RSK3(Kin.Dom.2-C-terminal); purchased DiscoverX (Ambit Biosciences) KINOMEscan
Outline: as §1

ROCK2 = target: T32, ROCK2 (Homo sapiens, UniProt O75116); conditions: read-out: %Inhibition by 10 μM SPA70
T32 construct: purchased DiscoverX (Ambit Biosciences) KINOMEscan
Outline: as §1

CHEK1 = target: T33, CHEK1 (Homo sapiens, UniProt O14757)
T33 construct: purchased DiscoverX (Ambit Biosciences) KINOMEscan
Outline: as §1

SYK = target: T34, SYK (Homo sapiens, UniProt P43405)
T34 construct: purchased DiscoverX (Ambit Biosciences) KINOMEscan
Outline: as §1

EPHB2 = target: T35, EPHB2 (Homo sapiens, UniProt P29323)
T35 construct: purchased DiscoverX (Ambit Biosciences) KINOMEscan
Outline: as §1

EPHA8 = target: T36, EPHA8 (Homo sapiens, UniProt P29322); conditions: read-out: %Inhibition by 10 μM SPA70
T36 construct: purchased DiscoverX (Ambit Biosciences) KINOMEscan
Outline: as §1

RIPK4 = target: T37, RIPK4 (Homo sapiens, UniProt P57078); conditions: read-out: %Inhibition by 10 μM SPA70
T37 construct: purchased DiscoverX (Ambit Biosciences) KINOMEscan
Outline: as §1

PRKD1 = target: T38, PRKD1 (Homo sapiens, UniProt Q15139); conditions: read-out: %Inhibition by 10 μM SPA70
T38 construct: purchased DiscoverX (Ambit Biosciences) KINOMEscan
Outline: as §1

HCK = target: T39, HCK (Homo sapiens, UniProt P08631); conditions: read-out: %Inhibition by 10 μM SPA70
T39 construct: purchased DiscoverX (Ambit Biosciences) KINOMEscan
Outline: as §1

LATS1 = target: T40, LATS1 (Homo sapiens, UniProt O95835); conditions: read-out: %Inhibition by 10 μM SPA70
T40 construct: purchased DiscoverX (Ambit Biosciences) KINOMEscan
Outline: as §1

FGFR2 = target: T41, FGFR2 (Homo sapiens, UniProt P21802); conditions: read-out: %Inhibition by 10 μM SPA70
T41 construct: purchased DiscoverX (Ambit Biosciences) KINOMEscan
Outline: as §1

OSR1 = target: T42, OSR1 (Homo sapiens, UniProt O95747); conditions: read-out: %Inhibition by 10 μM SPA70
T42 construct: purchased DiscoverX (Ambit Biosciences) KINOMEscan
Outline: as §1

T15 sequence (P49137 whole entry): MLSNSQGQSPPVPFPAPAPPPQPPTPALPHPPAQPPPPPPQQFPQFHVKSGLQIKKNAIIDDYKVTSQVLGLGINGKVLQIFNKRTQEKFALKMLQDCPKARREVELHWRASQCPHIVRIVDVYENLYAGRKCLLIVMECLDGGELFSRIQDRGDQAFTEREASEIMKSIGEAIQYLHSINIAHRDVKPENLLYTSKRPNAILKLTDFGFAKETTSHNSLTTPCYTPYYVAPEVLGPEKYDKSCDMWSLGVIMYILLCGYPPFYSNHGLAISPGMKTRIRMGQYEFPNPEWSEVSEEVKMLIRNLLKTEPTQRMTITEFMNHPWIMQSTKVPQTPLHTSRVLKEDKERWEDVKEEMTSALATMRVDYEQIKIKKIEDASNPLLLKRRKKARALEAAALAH
T14 sequence (O60331 whole entry): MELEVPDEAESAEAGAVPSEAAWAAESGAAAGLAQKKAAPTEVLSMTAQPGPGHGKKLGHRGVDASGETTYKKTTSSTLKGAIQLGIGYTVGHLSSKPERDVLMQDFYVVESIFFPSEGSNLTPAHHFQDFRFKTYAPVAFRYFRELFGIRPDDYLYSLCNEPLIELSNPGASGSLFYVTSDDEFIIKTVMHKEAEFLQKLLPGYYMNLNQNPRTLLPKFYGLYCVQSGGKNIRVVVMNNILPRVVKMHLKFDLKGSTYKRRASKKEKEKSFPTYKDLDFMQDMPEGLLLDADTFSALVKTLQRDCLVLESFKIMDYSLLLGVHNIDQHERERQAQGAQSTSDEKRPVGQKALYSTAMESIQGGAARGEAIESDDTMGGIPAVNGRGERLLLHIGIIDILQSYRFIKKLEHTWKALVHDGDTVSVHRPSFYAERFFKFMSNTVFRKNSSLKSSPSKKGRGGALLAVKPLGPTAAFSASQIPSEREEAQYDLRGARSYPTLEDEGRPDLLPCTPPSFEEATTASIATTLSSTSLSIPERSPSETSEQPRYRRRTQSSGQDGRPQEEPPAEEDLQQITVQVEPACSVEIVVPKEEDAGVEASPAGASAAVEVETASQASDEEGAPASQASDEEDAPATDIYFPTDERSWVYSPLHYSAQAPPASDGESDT
T28 sequence (Q9Y5S2 whole entry): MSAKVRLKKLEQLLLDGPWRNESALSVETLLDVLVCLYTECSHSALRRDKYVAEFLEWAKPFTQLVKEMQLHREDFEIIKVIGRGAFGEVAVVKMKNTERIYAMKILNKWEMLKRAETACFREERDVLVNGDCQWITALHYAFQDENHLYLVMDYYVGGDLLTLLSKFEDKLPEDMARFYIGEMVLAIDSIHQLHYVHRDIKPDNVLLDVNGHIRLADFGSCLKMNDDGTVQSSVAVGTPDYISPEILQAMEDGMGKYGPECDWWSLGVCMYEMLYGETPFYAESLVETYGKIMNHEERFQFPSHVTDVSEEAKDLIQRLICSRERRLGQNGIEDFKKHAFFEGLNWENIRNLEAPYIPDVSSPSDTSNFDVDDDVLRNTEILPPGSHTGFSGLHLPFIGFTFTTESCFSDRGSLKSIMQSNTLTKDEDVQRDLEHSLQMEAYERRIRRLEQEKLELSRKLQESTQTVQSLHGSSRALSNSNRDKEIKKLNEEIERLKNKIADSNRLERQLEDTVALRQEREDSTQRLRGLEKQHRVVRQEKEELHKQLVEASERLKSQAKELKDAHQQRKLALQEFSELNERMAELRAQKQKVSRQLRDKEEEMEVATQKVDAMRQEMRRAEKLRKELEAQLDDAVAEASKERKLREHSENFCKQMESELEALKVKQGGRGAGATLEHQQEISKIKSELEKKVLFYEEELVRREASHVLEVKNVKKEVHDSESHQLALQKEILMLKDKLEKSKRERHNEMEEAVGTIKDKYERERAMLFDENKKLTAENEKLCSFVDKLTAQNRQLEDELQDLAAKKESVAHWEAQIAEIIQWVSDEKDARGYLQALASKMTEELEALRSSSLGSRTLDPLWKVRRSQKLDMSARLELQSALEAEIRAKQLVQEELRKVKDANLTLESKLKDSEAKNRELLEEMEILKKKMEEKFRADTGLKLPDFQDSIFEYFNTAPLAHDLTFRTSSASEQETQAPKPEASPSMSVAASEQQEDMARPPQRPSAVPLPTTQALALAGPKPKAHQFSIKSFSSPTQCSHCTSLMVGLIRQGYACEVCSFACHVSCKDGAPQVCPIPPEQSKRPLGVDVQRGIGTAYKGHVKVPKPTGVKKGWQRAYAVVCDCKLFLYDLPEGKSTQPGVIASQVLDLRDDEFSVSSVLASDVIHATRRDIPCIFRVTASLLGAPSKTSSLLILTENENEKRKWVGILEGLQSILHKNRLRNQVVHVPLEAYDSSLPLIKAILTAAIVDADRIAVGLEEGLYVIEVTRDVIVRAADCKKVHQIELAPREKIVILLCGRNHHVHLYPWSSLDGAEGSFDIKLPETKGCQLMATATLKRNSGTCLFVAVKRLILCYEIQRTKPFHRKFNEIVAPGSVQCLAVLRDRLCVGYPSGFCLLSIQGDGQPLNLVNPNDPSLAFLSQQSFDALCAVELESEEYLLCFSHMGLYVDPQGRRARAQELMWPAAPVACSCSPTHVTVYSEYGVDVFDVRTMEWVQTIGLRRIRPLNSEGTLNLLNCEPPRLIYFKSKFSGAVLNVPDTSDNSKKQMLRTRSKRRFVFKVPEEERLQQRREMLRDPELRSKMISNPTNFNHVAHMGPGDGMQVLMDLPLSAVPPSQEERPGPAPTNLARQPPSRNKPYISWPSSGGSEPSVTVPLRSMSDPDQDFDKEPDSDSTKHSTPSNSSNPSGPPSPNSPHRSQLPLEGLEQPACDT
T36 sequence (P29322 28-1005): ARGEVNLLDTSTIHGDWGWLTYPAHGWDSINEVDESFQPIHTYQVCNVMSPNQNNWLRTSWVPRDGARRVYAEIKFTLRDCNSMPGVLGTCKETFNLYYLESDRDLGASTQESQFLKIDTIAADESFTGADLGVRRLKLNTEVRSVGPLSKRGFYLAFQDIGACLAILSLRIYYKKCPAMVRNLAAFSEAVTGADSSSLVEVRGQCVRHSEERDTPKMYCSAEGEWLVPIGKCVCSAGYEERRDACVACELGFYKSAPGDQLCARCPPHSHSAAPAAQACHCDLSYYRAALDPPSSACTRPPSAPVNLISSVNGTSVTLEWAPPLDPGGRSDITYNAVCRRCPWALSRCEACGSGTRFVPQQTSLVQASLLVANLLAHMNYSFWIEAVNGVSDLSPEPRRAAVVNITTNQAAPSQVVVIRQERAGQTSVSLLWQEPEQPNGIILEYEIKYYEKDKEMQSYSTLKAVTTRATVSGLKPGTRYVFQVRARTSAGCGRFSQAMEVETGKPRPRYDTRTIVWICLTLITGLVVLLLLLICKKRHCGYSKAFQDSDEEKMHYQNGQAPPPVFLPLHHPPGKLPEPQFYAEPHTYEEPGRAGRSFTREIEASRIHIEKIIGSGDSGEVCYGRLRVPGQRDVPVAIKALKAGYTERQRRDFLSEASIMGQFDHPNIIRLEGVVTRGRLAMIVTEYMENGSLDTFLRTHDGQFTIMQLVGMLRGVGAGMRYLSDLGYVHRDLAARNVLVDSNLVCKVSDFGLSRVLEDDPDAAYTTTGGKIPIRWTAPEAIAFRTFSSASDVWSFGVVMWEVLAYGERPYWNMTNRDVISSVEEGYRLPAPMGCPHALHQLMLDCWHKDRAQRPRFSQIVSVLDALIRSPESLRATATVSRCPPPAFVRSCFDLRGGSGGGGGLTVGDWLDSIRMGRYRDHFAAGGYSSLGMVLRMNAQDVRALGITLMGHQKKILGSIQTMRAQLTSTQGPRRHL
T12 sequence (Q8NE63 whole entry): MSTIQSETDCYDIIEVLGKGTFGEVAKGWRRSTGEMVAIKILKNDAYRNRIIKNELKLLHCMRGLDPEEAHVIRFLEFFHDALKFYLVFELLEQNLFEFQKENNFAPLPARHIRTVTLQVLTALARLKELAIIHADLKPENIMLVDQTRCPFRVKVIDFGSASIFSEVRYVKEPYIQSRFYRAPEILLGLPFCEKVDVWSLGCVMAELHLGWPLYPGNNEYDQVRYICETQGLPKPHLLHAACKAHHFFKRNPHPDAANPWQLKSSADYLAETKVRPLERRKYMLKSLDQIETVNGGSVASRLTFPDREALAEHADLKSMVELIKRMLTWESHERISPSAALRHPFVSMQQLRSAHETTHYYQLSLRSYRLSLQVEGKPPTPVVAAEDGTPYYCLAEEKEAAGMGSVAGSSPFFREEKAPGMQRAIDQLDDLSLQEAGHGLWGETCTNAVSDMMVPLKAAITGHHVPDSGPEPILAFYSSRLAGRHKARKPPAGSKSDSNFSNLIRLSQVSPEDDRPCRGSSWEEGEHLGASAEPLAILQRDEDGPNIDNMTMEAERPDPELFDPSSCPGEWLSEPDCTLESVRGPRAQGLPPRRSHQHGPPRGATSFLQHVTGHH
T13 sequence (P27361 whole entry): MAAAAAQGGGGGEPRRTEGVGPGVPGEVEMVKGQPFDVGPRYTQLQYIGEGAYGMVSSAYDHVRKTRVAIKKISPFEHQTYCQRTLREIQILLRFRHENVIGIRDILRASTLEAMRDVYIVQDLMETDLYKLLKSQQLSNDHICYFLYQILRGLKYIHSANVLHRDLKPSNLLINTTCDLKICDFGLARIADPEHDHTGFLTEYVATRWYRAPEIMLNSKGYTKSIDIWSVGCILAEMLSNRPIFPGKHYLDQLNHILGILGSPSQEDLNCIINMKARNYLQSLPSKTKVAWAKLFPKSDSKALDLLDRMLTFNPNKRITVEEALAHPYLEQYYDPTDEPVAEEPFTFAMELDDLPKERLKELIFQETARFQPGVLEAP
T29 sequence (Q8TDX7 whole entry): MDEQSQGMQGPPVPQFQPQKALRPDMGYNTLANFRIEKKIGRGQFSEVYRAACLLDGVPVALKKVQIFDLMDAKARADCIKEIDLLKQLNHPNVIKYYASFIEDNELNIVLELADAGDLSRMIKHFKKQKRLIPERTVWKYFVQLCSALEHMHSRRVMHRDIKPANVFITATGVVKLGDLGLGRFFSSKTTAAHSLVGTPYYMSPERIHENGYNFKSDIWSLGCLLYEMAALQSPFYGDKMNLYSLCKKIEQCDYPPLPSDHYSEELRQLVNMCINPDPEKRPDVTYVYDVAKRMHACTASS

SMILES: COc1ccc(OC)c(-n2nnc(S(=O)(=O)c3ccc(C(C)(C)C)cc3)c2C)c1 [SPA70]
- inhibition at 10 µM (ACVR2A): 0%
- inhibition at 10 µM (ASK1): 4%
- inhibition at 10 µM (MERTK): 0%
- inhibition at 10 µM (PRKCQ): 4%
- inhibition at 10 µM (PRKCD): 5%
- inhibition at 10 µM (SRC): 0%
- inhibition at 10 µM (MARK2): 16%
- inhibition at 10 µM (BRSK1): 8%
- inhibition at 10 µM (TESK1): 0%
- inhibition at 10 µM (CLK3): 0%
- inhibition at 10 µM (IGF1R): 0%
- inhibition at 10 µM (HIPK4): 0%
- inhibition at 10 µM (ERK1): 0%
- %Inhibition by 10 μM SPA70 (PIP5K1C): 0%
- inhibition at 10 µM (MAPKAPK2): 20%
- inhibition at 10 µM (SLK): 9%
- inhibition at 10 µM (NEK11): 34%
- %Inhibition by 10 μM SPA70 (CDK11): 0%
- inhibition at 10 µM (PLK4): 9%
- inhibition at 10 µM (PLK3): 33%
- inhibition at 10 µM (PRKCI): 0%
- %Inhibition by 10 μM SPA70 (PRKR): 26%
- inhibition at 10 µM (MAP4K4): 0%
- inhibition at 10 µM (BIKE): 35%
- inhibition at 10 µM (FGR): 6%
- inhibition at 10 µM (EPHB1): 0%
- inhibition at 10 µM (MAP3K15): 0%
- inhibition at 10 µM (MRCKB): 0%
- inhibition at 10 µM (NEK7): 0%
- inhibition at 10 µM (NDR2): 0%
- inhibition at 10 µM [1]: 19%
- inhibition at 10 µM (ROCK2): 13%
- %Inhibition by 10 μM SPA70 (CHEK1): 8%
- %Inhibition by 10 μM SPA70 (SYK): 0%
- %Inhibition by 10 μM SPA70 (EPHB2): 0%
- inhibition at 10 µM (EPHA8): 13%
- inhibition at 10 µM (RIPK4): 0%
- inhibition at 10 µM (PRKD1): 0%
- inhibition at 10 µM (HCK): 9%
- inhibition at 10 µM (LATS1): 0%
- inhibition at 10 µM (FGFR2): 0%
- inhibition at 10 µM (OSR1): 14%
